Data from ChEMBL document CHEMBL3217464, “Antimicrobial activity and mode of action of novel, N-terminal tagged tetra-peptidomimetics” (Medchemcomm, 2013).
Converted amounts (≈) assume the structure as drawn. The source made the active and inactive calls. The rule behind the calls is not given here. Where a SMILES comes first, the peptide text is derived from it. [ ]: non-standard residue; d: D form. The star is where a group is joined. Benzoyl(4-(biphenyl-4-yl)) = O=C(c1ccc(-c2ccc(-c3ccccc3)cc2)cc1)*; Linoleoyl = CCCCC/C=C\C/C=C\CCCCCCCC(=O)*; NMeL = CN[C@@H](CC(C)C)C(=O)O; NMeV = CN[C@H](C(=O)O)C(C)C; X1 = Nc1ccc(/C=C/C(=O)*)cc1; Orn = NCCC[C@H](N)C(=O)O; 2Abz = Nc1ccccc1C(=O)O

Key:
[1] = Induction of membrane permeabilization in POPC/POPG (7:3 w/w) LUVs assessed as graded leakage of encapsulated calcein dye at 41.01 ug/ml after 5 mins by spectrofluorimeter analysis
Escherichia coli = experiment: Antibacterial activity against Escherichia coli ATCC 11775 after 18 hrs by CLSI microdilution broth assay; assay type: functional; conditions: ATCC 11775, 18 h
[2] = Hemolytic activity against human erythrocytes assessed as hemoglobin release up to 500 ug/ml after 1 hr by ELISA; assay type: ADME, cell-based; conditions: erythrocyte
Bacillus subtilis = experiment: Antibacterial activity against Bacillus subtilis ATCC 6633 after 18 hrs by CLSI microdilution broth assay; assay type: functional; conditions: ATCC 6633, 18 h
Staphylococcus aureus [3] = experiment: Antibacterial activity against Staphylococcus aureus ATCC 29213 after 18 hrs by CLSI microdilution broth assay; assay type: functional; conditions: ATCC 29213, 18 h
Lipid bilayer [4] = experiment: Binding affinity to bacterial membrane mimic POPC/POPG (7:3 w/w) SUVs assessed as blue shift in tryptophan emission maxima at 3 uM after 2 mins by spectrofluorimeter analysis
Staphylococcus aureus [5] = experiment: Antibacterial activity against methicillin-resistant Staphylococcus aureus ATCC 33591 after 18 hrs by CLSI microdilution broth assay; assay type: functional; conditions: ATCC 33591, 18 h
Lipid bilayer [6] = experiment: Binding affinity to mammalian membrane mimic POPC SUVs assessed as blue shift in tryptophan emission maxima at 3 uM after 2 mins by spectrofluorimeter analysis
Acinetobacter baumannii = experiment: Antibacterial activity against Acinetobacter baumannii ATCC 19606 after 18 hrs by CLSI microdilution broth assay; assay type: functional; conditions: ATCC 19606, 18 h
Staphylococcus aureus [7] = experiment: Induction of membrane depolarization in methicillin-resistant Staphylococcus aureus ATCC 33591 at 12.5 ug/ml by DiSC3(5) dye by fluorimetric assay; assay type: functional
Pseudomonas aeruginosa = experiment: Antibacterial activity against Pseudomonas aeruginosa ATCC 25668 after 18 hrs by CLSI microdilution broth assay; assay type: functional; conditions: ATCC 25668, 18 h
[8] = Induction of membrane permeabilization in POPC/POPG (7:3 w/w) LUVs assessed as burst release of calcein dye at 5.68 ug/ml after 5 mins by spectrofluorimeter analysis
Staphylococcus aureus [9] = experiment: Induction of morphological alterations in methicillin-resistant Staphylococcus aureus ATCC 33591 assessed as cell clustering and ruptured membrane at 5XMIC after 30 mins by scanning electron microscopy; assay type: functional, organism-based
[10] = Binding affinity to gram-negative outer membrane LPS micelles by circular dichroism spectrophotometry
Aspergillus fumigatus = experiment: Antifungal activity against Aspergillus fumigatus assessed as growth inhibition up to 125 ug/ml by disk diffusion method; assay type: functional, organism-based
Staphylococcus aureus [11] = experiment: Induction of membrane depolarization in methicillin-resistant Staphylococcus aureus ATCC 33591 at 7.5 ug/ml by DiSC3(5) dye by fluorimetric assay; assay type: functional
Staphylococcus aureus [12] = experiment: Induction of membrane depolarization in methicillin-resistant Staphylococcus aureus ATCC 33591 by DiSC3(5) dye by fluorimetric assay; assay type: functional, organism-based
Candida albicans = experiment: Antifungal activity against Candida albicans assessed as growth inhibition up to 125 ug/ml by disk diffusion method; assay type: functional, organism-based
[13] = Stability of the compound assessed as compound digestion at 100 ug/ml after 10 hrs by RP-HPLC analysis in presence of proteinase-K; assay type: ADME; conditions: read-out: Drug degradation
[14] = Stability of the compound assessed as compound digestion at 100 ug/ml after 24 hrs by RP-HPLC analysis in presence of proteinase-K; assay type: ADME; conditions: read-out: Drug degradation
Lipid bilayer [15] = experiment: Binding affinity to mammalian membrane mimic POPC SUVs assessed as red shift in tryptophan emission maxima at 3 uM after 2 mins by spectrofluorimeter analysis
[16] = Induction of membrane permeabilization in POPC/POPG (7:3 w/w) LUVs assessed as leakage of encapsulated calcein dye at 14.01 ug/ml after 5 mins by spectrofluorimeter analysis
[17] = Hemolytic activity against human erythrocytes assessed as hemoglobin release at 500 ug/ml after 1 hr by ELISA; assay type: ADME, cell-based, Erythrocyte; conditions: read-out: Activity
Lipid bilayer [18] = experiment: Binding affinity to bacterial membrane mimic PC:PG (7:3 w/w) LUVs by circular dichroism spectrophotometry
Staphylococcus aureus [19] = experiment: Induction of morphological alterations in methicillin-resistant Staphylococcus aureus ATCC 33591 assessed as rough and damaged cell surface and formation of blebs and massive rupturing at 5XMIC after 30 mins by scanning electron microscopy; assay type: functional, organism-based

Row | SMILES | MIC (Escherichia coli) [mg/L] | Activity [2] | MIC (Bacillus subtilis) [mg/L] | MIC (Staphylococcus aureus [3]) [mg/L] | Activity (Lipid bilayer [4]) [nm] | MIC (Staphylococcus aureus [5]) [mg/L] | Tryptophan emission maximum blue shift (Lipid bilayer [6]) [nm] | MIC (Acinetobacter baumannii) [mg/L] | Activity (Staphylococcus aureus [7]) [%] | MIC (Pseudomonas aeruginosa) [mg/L] | Activity [8] [%] | other results
1 | NCCC[C@H](NC(=O)c1ccccc1N)C(=O)N[C@@H](CCCN)C(=O)N[C@@H](Cc1c[nH]c2ccccc12)C(=O)N[C@@H](Cc1c[nH]c2ccccc12)C(N)=O (H-[2Abz][Orn][Orn]WW-NH2) | 64 (≈ 86.9 µM) | Non-toxic | 64 (≈ 86.9 µM) | 64 (≈ 86.9 µM) | 5 | 64 (≈ 86.9 µM) | 1 | 64 (≈ 86.9 µM) | 8.9 | 16 (≈ 21.7 µM) | – | Activity [1]: 69.9%
2 | CN[C@@H](CC(C)C)C(=O)N[C@@H](CCCN)C(=O)N[C@@H](CCCN)C(=O)N[C@@H](Cc1c[nH]c2ccccc12)C(=O)N[C@@H](Cc1c[nH]c2ccccc12)C(N)=O (H-[NMeL][Orn][Orn]WW-NH2) | 64 (≈ 85.9 µM) | Non-toxic | 64 (≈ 85.9 µM) | 128 (≈ 172 µM) | 4 | 256 (≈ 344 µM) | 1 | 128 (≈ 172 µM) | 18.9 | 128 (≈ 172 µM) | – | –
3 | CN[C@H](C(=O)N[C@@H](CCCN)C(=O)N[C@@H](CCCN)C(=O)N[C@@H](Cc1c[nH]c2ccccc12)C(=O)N[C@@H](Cc1c[nH]c2ccccc12)C(N)=O)C(C)C (H-[NMeV][Orn][Orn]WW-NH2) | 256 (≈ 350 µM) | Non-toxic | 128 (≈ 175 µM) | 128 (≈ 175 µM) | 3 | 256 (≈ 350 µM) | 0 | 64 (≈ 87.6 µM) | 17.2 | 128 (≈ 175 µM) | – | Activity [1]: 41.8%
4 | NCCC[C@H](NC(=O)[C@@H](N)CCCN)C(=O)N[C@@H](Cc1c[nH]c2ccccc12)C(=O)N[C@@H](Cc1c[nH]c2ccccc12)C(N)=O (H-[Orn][Orn]WW-NH2) | 512 (≈ 829 µM) | Non-toxic | 512 (≈ 829 µM) | 128 (≈ 207 µM) | 3 | – | 2 | 512 (≈ 829 µM) | 5.6 | 256 (≈ 414 µM) | – | –
5 | CCCCC/C=C\C/C=C\CCCCCCCC(=O)N[C@@H](CCCN)C(=O)N[C@@H](CCCN)C(=O)N[C@@H](Cc1c[nH]c2ccccc12)C(=O)N[C@@H](Cc1c[nH]c2ccccc12)C(N)=O (Linoleoyl-[Orn][Orn]WW-NH2) | 2 (≈ 2.27 µM) | Non-toxic | 4 (≈ 4.54 µM) | 2 (≈ 2.27 µM) | 10 | 4 (≈ 4.54 µM) | 2 | 2 (≈ 2.27 µM) | 100 | 2 (≈ 2.27 µM) | 72.3 | Activity (Staphylococcus aureus [9]): Active; Activity [10]: Active; growth inhibition (GI) (Aspergillus fumigatus): inactive; Activity (Staphylococcus aureus [11]): 84%; Activity (Staphylococcus aureus [12]): Dose-dependent effect; growth inhibition (GI) (Candida albicans): inactive; metabolised at 10 h, 100 ug/ml [13]: 17%; metabolised at 24 h, 100 ug/ml [14]: 36%
6 | NCCC[C@H](NC(=O)/C=C/c1ccc(N)cc1)C(=O)N[C@@H](CCCN)C(=O)N[C@@H](Cc1c[nH]c2ccccc12)C(=O)N[C@@H](Cc1c[nH]c2ccccc12)C(N)=O (X1-[Orn][Orn]WW-NH2) | 32 (≈ 41.9 µM) | Non-toxic | 32 (≈ 41.9 µM) | 64 (≈ 83.9 µM) | 2 | 128 (≈ 168 µM) | – | 64 (≈ 83.9 µM) | 16.8 | 16 (≈ 21 µM) | 58.5 | Activity (Lipid bilayer [15]): 2 nm; Activity [16]: 68.3%
7 | NCCC[C@H](NC(=O)c1ccc(-c2ccc(-c3ccccc3)cc2)cc1)C(=O)N[C@@H](CCCN)C(=O)N[C@@H](Cc1c[nH]c2ccccc12)C(=O)N[C@@H](Cc1c[nH]c2ccccc12)C(N)=O ({Benzoyl(4-(biphenyl-4-yl))}-[Orn][Orn]WW-NH2) | 2 (≈ 2.29 µM) | – | 2 (≈ 2.29 µM) | 2 (≈ 2.29 µM) | 30 | 8 (≈ 9.15 µM) | 2 | 2 (≈ 2.29 µM) | – | 4 (≈ 4.58 µM) | 76.4 | growth inhibition (GI) (Aspergillus fumigatus): inactive; Activity (Staphylococcus aureus [11]): 81%; Activity (Staphylococcus aureus [12]): Dose-dependent effect; hemolysis at 1 h, 500 ug/ml [17]: 50%; growth inhibition (GI) (Candida albicans): inactive; Activity (Lipid bilayer [18]): Active; Activity (Staphylococcus aureus [19]): Active; metabolised at 10 h, 100 ug/ml [13]: 14%
8 | CN(C)[C@@H]1C(O)=C(C(N)=O)C(=O)[C@@]2(O)C(O)=C3C(=O)c4c(O)cccc4[C@@](C)(O)[C@H]3C[C@@H]12 [TETRACYCLINE] | 0.3 (≈ 0.675 µM) | – | – | 0.3 (≈ 0.675 µM) | – | > 50 | – | – | – | 0.3 (≈ 0.675 µM) | – | –
